Data published in patent publication EP1258248A2, “Tumor treatments comprising a fumagillol derivative and a further antineoplastic agent” (TAP Pharmaceutical Products, Inc., priority 2001, dated 2002).
Like-named read-outs stand apart in the source and are kept apart here.

Key:
[1] = system: lung cancer; settings: no TNP-470, lung cancer historical data, cited from earlier work
[2] = system: advanced or metastatic cancer; assay: Phase I clinical study of intermittent TNP-470 combined with paclitaxel (Example 1), all patients; type: in vivo, human; settings: TNP-470 20-60 mg/m^2 + 135-225 mg/m^2 paclitaxel; 32 patients (different cancers)
Text: (§1) TNP-470 administrations were repeated up to three times per week.
(§2) In the table, "response" refers to the percentage of patients whose tumor shrank by more than fifty percent; and "time to progression" refers to the median value of the length of time between the first dose of drug and observation that the tumor has grown by more than fifty percent, or that new tumors have appeared. Patients who stop taking the drug for other reasons are considered lost to follow-up for "time to progression" calculations. "Survival" in the table is a median value.

[3] = system: non-small cell lung cancer; assay: Phase I clinical study of intermittent TNP-470 with paclitaxel and carboplatin at a dose of AUC 5 (Example 2); type: in vivo, human
[4] = system: lung cancer; assay: Phase I clinical study of intermittent TNP-470 combined with paclitaxel (Example 1), lung cancer patients; type: in vivo, human
Text: as §1, §2

[5] = system: metastatic cancer; assay: Phase I clinical study of continuously infused TNP-470 with paclitaxel and carboplatin (Example 3); type: in vivo, human; settings: TNP-470 2.5-10 mg/m^2 continuous infusion with or without 60 on Day 1 + 200-225 mg/m^2 paclitaxel; carboplatin AUC 5-6; 20 patients (different cancers)
Experimental: Twenty adult patients with metastatic cancer, including patients with lung cancer, were treated with TNP-470, using repeated continuous administrations of low doses (2.5-10 mg/m^2 over five days in combination with paclitaxel at doses of 200-225 mg/m^2 and carboplatin at a dose of AUC 5 or AUC 6 (as explained in Example 2 above) reported in row 7 of Table 1 above.
In this study, paclitaxel was administered first, followed by the carboplatin, then by TNP-470 administered intravenously via portable continuous infusion syringe pump (available from Sims-Deltec) at a dose of 2.5 -10 mg/m^2 for five days (115-120 hours). The five-day TNP-470 infusion was repeated every week.
In an ongoing cohort of this study, in addition to the described therapy, nine patients received 60 mg/m^2 TNP-470 as a one-hour intravenous infusion after infusion of paclitaxel and prior to infusion of carboplatin. This high-dose one-hour TNP-470 infusion was administered only when paclitaxel and carboplatin were administered.

[6] = system: advanced or metastatic cancer; assay: Phase I clinical study of intermittent TNP-470 with paclitaxel and carboplatin at a dose of AUC 6 (Example 2)
Experimental: Doses of TNP-470 and paclitaxel were modified as described below.
Twenty adult patients with advanced or metastatic cancer, were treated with TNP-470 (synthesized according to the procedure of U.S. Patent No. 5,180,738) in a liquid cyclodextrin-containing formulation using repeated administrations of a high dose (60 mg/m^2) given over one hour, combined with 225 mg/m^2 paclitaxel given over three hours. Carboplatin was given at doses calculated to provide an "area-under-the-curve (AUC)" exposure of 5 or 6 mg/mL/min (hereinafter referred to as "a dose of AUC 5" or "a dose of AUC 6"), according to the formula Dose (mg) = AUC x (glomerular filtration rate + 25) [formula] as described in the package insert for carboplatin. Glomerular filtration rate was estimated by creatinine clearance, either measured or calculated from the patient's age, weight, gender and serum creatinine according to the Cockcroft-Gault equation Cr CL = ((140-age) x weight (kg)/72 x serum creatinine) x 1.0 if male or 0.85 if female [formula]
In this study, paclitaxel was administered first, followed one hour later by TNP-470, then finally by the carboplatin. TNP-470 administrations were repeated up to three thimes per week. Paclitaxel and carboplatin administrations were repeated every three weeks as the patients' condition permitted. Anti-emetic therapy and prophylaxis against paclitaxel hypersensitivity were administered in accordance with the paclitaxel package insert on days when paclitaxel and carboplatin were administered.
The patients' tumors were measured at the start of the study, after six to eight weeks of therapy, and at two-month intervals thereafter. Patients continued to receive TNP-470 until tumors grew by 50% or they experienced adverse events.
Three patients, all with non-small cell lung cancer, received TNP-470 in combination with paclitaxel and carboplatin (a dose of AUC 5).

[7] = TNP-470 20-60 mg/m^2 + 135-225 mg/m^2 paclitaxel, 15 patients (lung cancer only), median
[8] = TNP-470 60 mg/m^2 + 225 mg/m^2 paclitaxel, carboplatin AUC 6, 14 patients (different cancers)

SMILES	Survival (months) ([1]; median)	Time to Progression (months) ([1]; median)	Responses (percentage) ([1]; patients whose tumor shrank by more than fifty percent)	Responses (percentage) [2] [percentage]	Responses (percentage) ([3]; TNP-470 60 mg/m^2 + 225 mg/m^2 paclitaxel, carboplatin AUC 5, 3 patients (lung cancer only))	Survival (months) ([3]; TNP-470 60 mg/m^2 + 225 mg/m^2 paclitaxel, carboplatin AUC 5, 3 patients (lung cancer only), individual values)	tumor response in words ([3]; TNP-470 in combination with paclitaxel and carboplatin (a dose of AUC 5), three patients, all with non-small cell lung cancer)	tumor shrinkage ([3]; TNP-470 with paclitaxel and carboplatin, patients with non-small-cell lung cancer)	Survival (months) [4, 7] [months]	Time to Progression (months) [4, 7] [months]	Responses (percentage) ([4]; TNP-470 20-60 mg/m^2 i.v. up to three times per week + 135-225 mg/m^2 paclitaxel every three weeks, 15 patients (lung cancer only))	increase in survival over that previously reported for patients treated with paclitaxel alone ([4]; TNP-470 + paclitaxel, patients with lung cancer, 14.3 months vs. 8 months)	Responses (percentage) [5] [percentage]	tolerability of the combined therapy ([6]; TNP-470 60 mg/m^2 + 225 mg/m^2 paclitaxel + carboplatin at a dose of AUC 6, variety of different cancers, prior chemotherapy)	Survival (months) [6, 8]	Time to Progression (months) [6, 8]	Responses (percentage) ([6]; TNP-470 60 mg/m^2 + 225 mg/m^2 paclitaxel, carboplatin AUC 6, 14 patients (different cancers), prior chemotherapy, insufficient therapy to evaluate effectiveness)
CC(=O)O[C@H]1C(=O)[C@@]2(C)[C@H]([C@H](OC(=O)c3ccccc3)[C@]3(O)C[C@H](OC(=O)[C@H](O)[C@@H](NC(=O)c4ccccc4)c4ccccc4)C(C)=C1C3(C)C)[C@]1(OC(C)=O)CO[C@@H]1C[C@@H]2O [paclitaxel]	6-9 months	∼3 months	20-30 percentage	–	–	–	–	–	–	–	–	–	–	–	–	–	–
CO[C@@H]1[C@H](OC(=O)NC(=O)CCl)CC[C@]2(CO2)[C@H]1[C@@]1(C)O[C@@H]1CC=C(C)C [TNP-470, 6-O-(N-chloroacetylcarbamoyl) fumagillol]	–	–	–	28	100	often, sixteen and more than twenty-two	All three had partial responses	experienced tumor shrinkage	14.3	5.4	33	greater than 70%	20	tolerated the combined therapy poorly beyond two cycles of therapy	regimen not tolerated	regimen not tolerated	0
